{"source": "patent US10689370B2", "about": "“Cyclopropane carboxamide modulators of cystic fibrosis transmembrane conductance regulator” (Auspex Pharmaceuticals, Inc., priority 2014, dated 2020)", "test": "In vitro human liver microsomal stability assay", "type": "in vitro ADME", "details": "human liver microsomes 2 mg per mL protein, NADPH-generating system, 1 uM test compound, 37 °C, 0-240 min; for half-life % change over d0: degradation half-life relative to non-deuterated d0 (Example 1); for Clearance % change over d0: relative to non-deuterated d0 (Example 1)", "description": "In Vitro Liver Microsomal Stability Assay\nHuman liver microsomal stability assays were conducted at 2 mg per mL liver microsome protein with an NADPH-generating system consisting of NADP (1 mM, pH 7.4), glucose 6-phosphate (5 mM, pH 7.4) and glucose 6-phosphate dehydrogenase (I unit/mL). Test compounds were prepared as solutions in DMSO and added to the assay mixture (1 uM, final concentration in incubation) and incubated at 37±1° C. Reactions were initiated with addition of the test compounds and stopped at 0, 60, 120 or 240 min after test article addition with stop reagent, acetonitrile. Samples were centrifuged (920×g for 10 min at 10° C.) in 96-well plates. Supernatant fractions were analyzed by LC-MS/MS to determine the percent remaining and estimate the degradation half-life of the test compounds.", "data": [{"smiles": "[2H]C([2H])([2H])C(CO)(c1cc2cc(NC(=O)C3(c4ccc5c(c4)OC(F)(F)O5)CC3)c(F)cc2n1C[C@@H](O)CO)C([2H])([2H])[2H]", "note": "[Example 3, 1-(2,2-difluoro-2H-1,3-benzodioxol-5-yl)-N-[1-[(2R)-2,3-dihydroxypropyl]-6-fluoro-2-[1-hydroxy-2-methyl(^2H6)propan-2-yl]-1H-indol-5-yl]cyclopropane-1-carboxamide]", "values": [{"measurement": "half-life % change over d0", "result": 13.3, "unit": "%"}, {"measurement": "Clearance % change over d0", "result": "−11.9", "unit": "%"}]}, {"smiles": "[2H]C([2H])(O)C(C)(C)c1cc2cc(NC(=O)C3(c4ccc5c(c4)OC(F)(F)O5)C([2H])([2H])C3([2H])[2H])c(F)cc2n1C[C@@H](O)CO", "note": "[Example 6]", "values": [{"measurement": "half-life % change over d0", "result": 281.8, "unit": "%"}, {"measurement": "Clearance % change over d0", "result": "−73.8", "unit": "%"}]}, {"smiles": "[2H]C([2H])(O)C(C)(C)c1cc2cc(NC(=O)C3(c4ccc5c(c4)OC(F)(F)O5)CC3)c(F)cc2n1C[C@@]([2H])(O)C([2H])([2H])O", "note": "[Example 5, (R)1-(2,2-difluoro-2H-1,3-benzodioxol-5-yl)-N-[1-[2,3-dihydroxy(2,3,3-^2H3)propyl]-6-fluoro-2-(1-hydroxy-2-methyl(1,1-^2H2)propan-2-yl)-1H-indol-5-yl]cyclopropane-1-carboxamide]", "values": [{"measurement": "half-life % change over d0", "result": 250.3, "unit": "%"}, {"measurement": "Clearance % change over d0", "result": "−71.4", "unit": "%"}]}, {"smiles": "[2H]C([2H])(O)[C@]([2H])(O)Cn1c(C(C)(C)CO)cc2cc(NC(=O)C3(c4ccc5c(c4)OC(F)(F)O5)CC3)c(F)cc21", "note": "[Example 4, (R)1-(2,2-difluoro-2H-1,3-benzodioxol-5-yl)-N-[1-[2,3-dihydroxy(2,3,3-^2H3)propyl]-6-fluoro-2-(1-hydroxy-2-methylpropan-2-yl)-1H-indol-5-yl]cyclopropane-1-carboxamide]", "values": [{"measurement": "half-life % change over d0", "result": 4.8, "unit": "%"}, {"measurement": "Clearance % change over d0", "result": "−4.8", "unit": "%"}]}, {"smiles": "[2H]C([2H])([2H])C(CO)(c1cc2cc(NC(=O)C3(c4ccc5c(c4)OC(F)(F)O5)C([2H])([2H])C3([2H])[2H])c(F)cc2n1C[C@@H](O)CO)C([2H])([2H])[2H]", "note": "[Example 7, (R)-1-(2,2-difluorobenzo[d][1,3]dioxol-5-yl)-N-(1-(2,3-dihydroxypropyl)-6-fluoro-2-(1-hydroxy-2-methyl(^2H6)propan-2-yl)-1H-indol-5-yl)(^2H4)cyclopropanecarboxamide]", "values": [{"measurement": "half-life % change over d0", "result": "−4.2", "unit": "%"}, {"measurement": "Clearance % change over d0", "result": 4.8, "unit": "%"}]}, {"smiles": "CC(C)(CO)c1cc2cc(NC(=O)C3(c4ccc5c(c4)OC(F)(F)O5)CC3)c(F)cc2n1C[C@@H](O)CO", "note": "[Example 1, (R)-1-(2,2-difluorobenzo[d][1,3]dioxol-5-yl)-N-(1-(2,3-dihydroxypropyl)-6-fluoro-2-(1-hydroxy-2-methylpropan-2-yl)-1H-indol-5-yl)cyclopropanecarboxamide, reference compound]", "values": [{"measurement": "half-life % change over d0", "result": 0.0, "unit": "%"}, {"measurement": "Clearance % change over d0", "result": 0.0, "unit": "%"}]}, {"smiles": "[2H]C([2H])(O)[C@H](O)Cn1c(C(C)(C)CO)cc2cc(NC(=O)C3(c4ccc5c(c4)OC(F)(F)O5)CC3)c(F)cc21", "note": "[Example 8, (R)1-(2,2-difluoro-2H-1,3-benzodioxol-5-yl)-N-[1-[2,3-dihydroxy(3,3-^2H2)propyl]-6-fluoro-2-(1-hydroxy-2-methylpropan-2-yl)-1H-indol-5-yl]cyclopropane-1-carboxamide]", "values": [{"measurement": "half-life % change over d0", "result": 4.8, "unit": "%"}, {"measurement": "Clearance % change over d0", "result": "−4.8", "unit": "%"}]}, {"smiles": "[2H]C([2H])(O)C(C)(C)c1cc2cc(NC(=O)C3(c4ccc5c(c4)OC(F)(F)O5)CC3)c(F)cc2n1C[C@@H](O)CO", "note": "[Example 2]", "values": [{"measurement": "half-life % change over d0", "result": 200.0, "unit": "%"}, {"measurement": "Clearance % change over d0", "result": "−66.7", "unit": "%"}]}]}
